Test results as given in patent US7230131B2, “Carnitine-magnesium hydroxycitrate” (Lonza AG, priority 2000, dated 2007).
Where two headings read alike, the source gives them in different places.

Experiments:
citrate lyase = biological target: T1, citrate lyase (Homo sapiens, UniProt P53396); settings: cited from earlier work
T1 sequence (P53396 1-1101): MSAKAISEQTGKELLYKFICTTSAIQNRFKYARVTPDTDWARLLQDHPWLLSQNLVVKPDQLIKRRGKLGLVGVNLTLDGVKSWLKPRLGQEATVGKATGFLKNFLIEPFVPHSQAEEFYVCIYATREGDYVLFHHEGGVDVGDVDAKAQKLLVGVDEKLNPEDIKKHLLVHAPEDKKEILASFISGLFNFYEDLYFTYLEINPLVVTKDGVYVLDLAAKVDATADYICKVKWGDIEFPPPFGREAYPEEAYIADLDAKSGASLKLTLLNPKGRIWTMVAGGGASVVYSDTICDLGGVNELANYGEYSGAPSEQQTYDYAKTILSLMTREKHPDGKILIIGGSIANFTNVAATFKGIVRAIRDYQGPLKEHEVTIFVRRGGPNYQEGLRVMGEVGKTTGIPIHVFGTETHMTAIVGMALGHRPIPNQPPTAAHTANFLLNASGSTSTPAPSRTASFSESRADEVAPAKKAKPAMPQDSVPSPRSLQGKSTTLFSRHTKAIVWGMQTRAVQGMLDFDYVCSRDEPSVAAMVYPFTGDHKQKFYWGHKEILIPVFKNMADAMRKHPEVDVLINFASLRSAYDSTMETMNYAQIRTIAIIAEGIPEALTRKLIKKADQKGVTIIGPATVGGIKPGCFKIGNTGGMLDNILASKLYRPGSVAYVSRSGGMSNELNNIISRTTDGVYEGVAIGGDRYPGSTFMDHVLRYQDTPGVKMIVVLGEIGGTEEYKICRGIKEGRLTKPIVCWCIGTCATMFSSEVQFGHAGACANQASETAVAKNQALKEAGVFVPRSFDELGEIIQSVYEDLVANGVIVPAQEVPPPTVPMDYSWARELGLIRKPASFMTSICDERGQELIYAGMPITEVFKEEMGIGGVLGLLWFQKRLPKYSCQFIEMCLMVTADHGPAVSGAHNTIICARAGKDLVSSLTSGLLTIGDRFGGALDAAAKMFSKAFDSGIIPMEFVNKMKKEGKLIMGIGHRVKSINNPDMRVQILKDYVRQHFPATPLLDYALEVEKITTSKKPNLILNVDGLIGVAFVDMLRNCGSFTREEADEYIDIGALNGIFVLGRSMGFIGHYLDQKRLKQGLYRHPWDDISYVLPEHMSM

[1] = Hygroscopicity test: gravimetric moisture uptake on storage at 56% relative humidity, 25° C.; format: physicochemical; settings: for moisture uptake: previously dried to constant weight; for weight gain (moisture uptake from the air): 25° C., granulated <0.8 mm, previously dried over phosphorus pentoxide, based on total sample weight, Citrate
From the text: In a preferred embodiment, L-carnitine, magnesium hydroxide and citric acid are mixed in stoichiometric amounts, i.e. in a molar ratio of approximately 1:1:1. The types of these substances are preferably sufficiently pure, i.e. approved for the manufacture of food products or the preparation of pharmaceuticals, as are described, for example, in the European Pharmacopoeia. Anhydrous types are expediently used. To avoid an unwanted salt loading, the pure L-carnitine is preferably added to the mixture as neutral […] salt. Compared with previous methods of preparation, the hygroscopicity of the complex salt L-carnitine-magnesium citrate prepared in this way is reduced further. For example, the moisture uptake, determined by gravimetry in the way familiar to the skilled worker, of solid carnitine-Mg citrate prepared by the method of the invention and previously dried to constant weight under oil-pump vacuum or over phosphorus pentoxide is not more than 7% by weight after 48 h at 56% relative humidity (rH). This figure is not exceeded even after storage for 330 h. Based on the amount of carnitine or carnitine derivative present in the mixture, referred to within the scope of the invention as carnitine content based on free base, this corresponds to a moisture uptake of not more than 40% by weight. It is preferred for at least 80% of the carnitine-Mg citrate, based on the carnitine content in the mixture, to be in the form of complex salt in the mixture of the invention.
The product mixtures from example 1 and 2 granulated to a particle size of <0.8 mm using a FREEWIT screening granulator are stored at a relative humidity of 56% at 25° C. under constant test conditions for the stated times. The sample was previously dried to constant weight over phosphorus pentoxide. The moisture uptake from the air is determined by gravimetry. The weight gain is stated in percent based on the total weight of the sample.

[2] = relative humidity 56%, storage for 1 week; cited from earlier work
[3] = Weight gain of previously dried mixture under standard conditions; format: physicochemical; settings: after 24 h under standard conditions
Protocol: The weight gain of the mixture of the invention which had previously been dried was, after 24 h under standard conditions, 0.82% by weight. At a relative humidity of 56%, the water uptake of the mixture determined by gravimetry was ≦10% by weight after 30 h, corresponding to about 30% by weight based on the carnitine content of the mixture.

[4] = Storage stability in relation to rearrangement of HCA to the lactone, standard test conditions; format: physicochemical; settings: compared with known HCA salts; standard test conditions customary in the pharmaceutical sector
From the text: The present invention further relates to carnitine-magnesium hydroxycitrate. This is a salt of low hygroscopicity and can be prepared by the present method through mixing magnesium hydroxide, hydroxycitric acid and carnitine or alkanoyl carnitine in the molar ratio 1:1:1. It is a neutral salt in the stoichiometric composition, in relation to the charge distribution and the ionizable functional groups. […] This involves a synergistic effect of the mixture in the form of a complex salt. Without wishing to be bound to the theory, it is possible that this effect is brought about by a better bioavailability of the complex salt. HCA is prone to spontaneous lactonization in aqueous solution and in the gastrointestinal tract. The complexation with Mg before preparation of a solution might have a stabilizing effect in relation to the unwanted rearrangement of the lactone and thus bring about much greater activity in cooperation with carnitine. […] It is also possible that a previously unrecognized stimulating effect in particular of magnesium, in the sense of that stated above concerning the mechanism of action of carnitine and hydroxycitrate, is involved. Allosterically regulated enzymes are often regulated by various factors such as, for example, also Mg cations. Magnesium is moreover an important cofactor for various enzymes or constituent of the holo enzyme. […]

[5] = storage time 4 h, 56% relative humidity
[6] = storage time 8 h, 56% relative humidity
[7] = storage time 24 h, 56% relative humidity
[8] = storage time 36 h, 56% relative humidity
[9] = storage time 48 h, 56% relative humidity
[10] = storage time 336 h, 56% relative humidity

Compound	weight gain (moisture uptake from the air) [1, 5] [% by weight]	weight gain (moisture uptake from the air) [1, 6] [% by weight]	weight gain (moisture uptake from the air) [1, 7] [% by weight]	weight gain (moisture uptake from the air) [1, 8] [% by weight]	weight gain (moisture uptake from the air) [1, 9] [% by weight]	weight gain (moisture uptake from the air) [1, 10] [% by weight]	other results
O=C(O)CC(O)(C(=O)O)C(O)C(=O)O (stereo not shown) [HCA, Hydroxycitric acid]	–	–	–	–	–	–	affinity of the enzyme relative to natural substrate citric acid (citrate lyase; fold higher than for citric acid): more than 100 times
C[N+](C)(C)C[C@H](O)CC(=O)[O-].O=C([O-])CC(O)(CC(=O)[O-])C(=O)[O-].O=C([O-])CC(O)(CC(=O)[O-])C(=O)[O-].[Mg+2].[Mg+2].[Mg+2] [carnitine-Mg citrate, L-carnitine-magnesium citrate]	–	–	–	–	–	–	moisture uptake based on carnitine content (free base) ([1]; 56% relative humidity, based on amount of carnitine in the mixture): not more than 40 % by weight; moisture uptake ([1]; after 48 h at 56% relative humidity): not more than 7 % by weight; moisture uptake ([1]; after storage for 330 h at 56% relative humidity): not more than 7 % by weight
C[N+](C)(C)C[C@H](O)CC(=O)[O-].O=C([O-])CC(O)(CC(=O)[O-])C(=O)[O-].O=C([O-])CC(O)(CC(=O)[O-])C(=O)[O-].[Mg+2].[Mg+2].[Mg+2] [example 1, L-Carnitine-Magnesium Citrate]	2.0	2.2	4.6	4.4	5.2	5.1	–
C[N+](C)(C)C[C@H](O)CC(=O)[O-].O=C([O-])CC(O)(CC(=O)[O-])C(=O)[O-].O=C([O-])CC(O)(CC(=O)[O-])C(=O)[O-].[Mg+2].[Mg+2].[Mg+2] [example 2, L-Carnitine-Magnesium Citrate]	2.7	3.0	5.4	5.5	6.4	6.5	–
O=C1C[C@@](O)(C(=O)O)[C@@H](C(=O)O)O1 [lactone derivative]	–	–	–	–	–	–	affinity of the enzyme compared with HCA (citrate lyase; by comparison with HCA): clear lower affinity
C[N+](C)(C)C[C@H](O)CC(=O)[O-].O=C([O-])CC(O)(CC(=O)[O-])C(=O)[O-].O=C([O-])CC(O)(CC(=O)[O-])C(=O)[O-].[Mg+2].[Mg+2].[Mg+2] [reference, L-carnitine-magnesium citrate, reference compound]	5.1	9.1	18.1	17.6	20.4	15.6	water uptake [2]: 21 % by weight
L-Carnitine-Magnesium (−)-Hydroxycitrate [Example 4]	–	–	–	–	–	–	water uptake based on the carnitine content of the mixture ([1]; after 30 h at relative humidity 56%): about 30 % by weight; water uptake ([1]; after 30 h at relative humidity 56%, gravimetry): ≤ 10 % by weight; weight gain [3]: 0.82 % by weight; storage stability in relation to rearrangement of HCA to the lactone [4]: improved storage stability
